The record followed here is patent US12134785B2, “Differentiation of pluripotent stem cells to form renal organoids” (The University of Queensland, priority 2014, dated 2024).

The structures appear in SMILES notation.

For test [1], the system named is human iPSC line CRL1502 (clone#C32). The test can be described thus: RA signaling control of A-P fate patterning of the IM (RA or AGN193109 with FGF9, monolayer differentiation, immunofluorescence). The following applies: day 18. In kind it is cell-based. The procedure:
(§1) All experiments presented used the previously described wildtype human iPSC line CRL1502 (clone#C32) generated using episomal reprogramming^28. Undifferentiated human iPSCs were maintained on the mouse embryonic fibroblasts (MEFs) (Millipore) as a feeder layer with human ES cell (hES) medium as described previously^1. Cells were authenticated and tested for the mycoplasma infection^28. Human iPSCs were plated on a Matrigel-coated (Millipore) culture dish and cultured in MEF-conditioned hES medium (MEF-CM) until reaching to 60-100% confluent. Then, cells were again plated on a Matrigel-coated at 5,000 cells/cm^2 in MEF-CM. Next day, cells reached to 40-50% of confluent, cells were treated with 8 μM of CHIR99021 in APEL basal medium ([…] Technologies) supplemented with Antibiotic-Antimycotic (Life Technologies) for 2-5 days, followed by FGF9 (200 ng mL^−1) and Heparin (1 μg mL^−1) for another […], with changing medium every second day. At day 7, cells were collected and dissociated into single cells using Trypsin or TrypLE select (Life Technologies). Cells (0.5×10^6) were spun down at ×400 g for 2 min to form a pellet and then transferred onto a Transwell 0.4 μm pore polyester membrane (#CLS3450 Corning). Pellets were treated with 5 μM of CHIR99021 in APEL for 1 h, and then cultured with FGF9 (200 ng mL^−1) and Heparin (1 μg mL^−1) for 5 days, followed by another 6-13 days in APEL basal medium, with changing medium three times a week. Culture medium should not exceed above a membrane. For the differentiation in monolayer cultures, cells post CHIR99021 induction were treated by FGF9 (200 ng mL^−1) and Heparin (1 μg mL^−1) for 10 days, followed by APEL basal medium for another 6 days. In some experiments, RA (0.1 μM) or AGN193109 (5 μM) were added to FGF9 medium. A step-by step protocol describing kidney organoid generation was provided in Example 1.
For monolayer cells, antibody staining was performed as described previously^1. For the kidney organoid, organoids were fixed with 2% paraformaldehyde in PBS for 20 min at 4° C. followed by 3 times wash with PBS. […]

For test [2], the system named is IM cells. The test can be described thus: Preliminary data on differentiation of IM cells at different RA / AGN193109 concentrations. The class given is cell-based. The following applies: higher concentrations of AGN193109.
Test [3] deals with human iPSC line CRL1502 (clone#C32). The test can be described thus: Duration of initial Wnt signaling (CHIR99021) prior to FGF9: AI/PI markers by qPCR and immunofluorescence. The class given is cell-based. As for the experimental part: as §1
For monolayer cells, antibody staining was performed as described previously^1. For the kidney organoid, organoids were fixed with 2% paraformaldehyde in PBS for 20 min at 4° C. followed by 3 times wash with PBS. Then organoids were blocked with 10% donkey serum, 0.3% Triton X/PBS for 2-3 h at room temperature and incubated with primary antibodies overnight at 4° C. After 5 times washing with 0.1% Triton X/PBS. secondary antibodies were incubated for 4 h at room temperature. The following antibodies and dilutions were used: rabbit anti-PAX2 (1:300, #71-6,000, Zymed Laboratories), goat anti-SIX1 (1:300, #sc-9709, Santa Cruz Biotechnology), rabbit anti-SIX2 (1:300, #11562-1-AP, Proteintech), mouse anti-ECAD (1:300, #610181. BD Biosciences), rabbit anti-WT1 (1:100, #sc-192, Santa Cruz Biotechnology), mouse anti-HOXD11 (1:300, #SAB1403944, Sigma-Aldrich), goat anti-GATA3 (1:300, AF2605, R&D Systems). rabbit anti-JAG1 (1:300, #ab7771, Abcam), goat anti-Cubilin (1:150, #sc-20607. Santa Cruz Biotechnology), sheep anti-NPHS1 (1:300, AF4269, R&D Systems), LTL-biotin-conjugated (1:300, B-1325, Vector Laboratories), DBA-biotin-conjugated (1:300, B-1035, Vector Laboratories), mouse anti-KRT8 (1:300, #TROMA, DSHB), mouse anti-CD31 (1:300, #555444, BD Pharmingen), rabbit anti-KDR (1:300, #2479, Cell Signaling Technology), goat anti-SOX17 (1:300, #AF1924, R&D Systems), rabbit anti-NG2 (1:300, #AB5320, Merck Millipore), rabbit anti-SMA (1:300, #ab15267. Abcam), mouse anti-PDGFRA (1:200, #556001. BD Pharmingen), rabbit anti-Laminin (1:300, #L9393, Sigma-Aldrich), rabbit anti-UMOD (1:300, #BT-590, Biomedical Technologies), mouse anti-MEIS1 (1:300, #ATM39795, activemotif), goat anti-FOXD1 (1:200, #sc-47585, Santa Cruz Biotechnology) and rabbit anti-cleaved-CASP3 (1:300, #9661, Cell Signaling Technology). Images were taken using a Nikon Ti-U microscope or a Zeiss LSM 780 confocal microscope. All immunofluorescence analyses were successfully repeated more than three times and representative images are shown. […]
In general terms: Quantitative PCR measures a nucleic acid by following its amplification.

Test [4] has as its system kidney organoids. The test can be described thus: Regulation of nephrogenesis in the kidney organoid (CHIR99021 pulse, FGF9). The class given is cell-based, human. As for the experimental part: as §1, with “Pellets were treated with 5 μM of CHIR99021 in APEL for 1 h, and then cultured with FGF9 (200 ng mL^−1) and Heparin (1 μg mL^−1) for 5 days, followed by another 6-13 days in APEL basal medium, with changing medium three times a week.” left out

The mark [5] stands for this setting: longer duration of CHIR99021, day 7.
Setting [6] is: shorter duration of CHIR99021, day 7.

Regarding `Cc1ccc(C2=CCC(C)(C)c3ccc(C#Cc4ccc(C(=O)O)cc4)cc32)cc1` [AGN193109], the “AI specification of early migrating cells” value in test [1] (3 days CHIR99021 followed by FGF9 + AGN) is listed as “inhibited”. Also, the “induction of the MM lineage” value in test [1] (AGN193109 (5 μM) with FGF9 after CHIR99021, monolayer) is given as “enhanced”. Moreover, in test [1] (RA (0.1 μM) or AGN193109 (5 μM) with FGF9 after CHIR99021, monolayer), the “UE induction (GATA3+PAX2+ECAD+)” value is reported as “inhibited”. In test [2], the “proportion of metanephric mesenchyme cells” value is recorded as “relative increase”.

On to `Cc1c[nH]c(-c2cnc(NCCNc3ccc(C#N)cn3)nc2-c2ccc(Cl)cc2Cl)n1` [CHIR99021], for which, in test [3] (fewer days in CHIR, after 18 days of culture), the “UE induction (GATA3+PAX2+ECAD+)” value was “dominant UE induction”. For the same compound, in test [3] (initial 4 days of CHIR99021), the “induction of UE and MM in monolayer culture” value was “induction of both the UE and MM”. Moreover, in test [3] (longer days in CHIR99021), the “expression of the PSM markers TBX6 and T (qPCR)” value is listed as “Prolonged expression”. The “induction of MM (PAX2+ECAD−) and its derivatives (PAX2+ECAD+)” value in test [3] (longer days in CHIR, after 18 days of culture) is “preferential induction of MM”. The “PI markers HOXD11 and EYA1 (qPCR)” value in test [3] (longer days of 8 μM CHIR99021, day 7) was “increased”. Moreover, the “AI (GATA3) by immunofluorescence” value in test [3] (setting [5]) is listed as “less”; in test [3] (setting [6]), “more”. In addition, the “PI (HOXD11) by immunofluorescence” value in test [3] (setting [5]) is “more”; in test [3] (setting [6]) it was “less”. The “AI markers LHX1 and GATA3 (qPCR)” value in test [3] (shorter period of 8 μM CHIR99021, day 7) is recorded as “induced”. Besides, in test [4] (5 μM CHIR99021 for 1 h immediately post aggregation vs no pulse), the nephrogenesis in organoids result is reported as “promoted nephrogenesis”. Besides, the formation of aggregates result in test [4] (45 minute pulse of high CHIR (5 μM) immediately upon reaggregation) is given as “enhanced”. Also, in test [4] (pulse of CHIR99021 for one hour after forming a pellet), the “maximal nephron number per organoid” value is recorded as “required”.
